Experimental data taken from article PMC9426601 (mBio, 2022).
Values joined by “and” are separate entries in the source; they are usually repeats but may differ in a detail not shown here. Equal entries are not always repeated. Where two headings read alike, the source gives them in different places.

Experiments:
A(H1N1pdm09)-WT [1] = experiment: microbe, parasite or virus in culture; assay type: cell-based, influenza A(H1N1pdm09) virus; settings: Influenza A virus, read-out: Baloxavir EC50 (nM) FRA
A(H3N2) 100% WT = test system: A(H3N2) 100% WT; parameters: species or system ferrets (Mustela putorius furo); settings: in vivo
A(H1N1pdm09) 100% WT = test system: A(H1N1pdm09) 100% WT; parameters: species or system ferrets (Mustela putorius furo); AUC (area under the curve of nasal wash viral titer): unit not given beside the values; settings: in vivo
A(H1N1pdm09)-WT [2] = experiment: yield reduction assay (YRA) in MDCK-SIAT cells; assay type: cell-based, influenza A(H1N1pdm09) virus; settings: A(H1N1pdm09) 100% WT, mean ± SD
Method: (§1) To perform the yield reduction assay, MDCK-SIAT cells were seeded into a 96-well plate as described above. Cell monolayers were washed with PBS and infected with 100 virus particles (calculated based on virus titer determined by TCID50) for 90 min. […] The plates were incubated for 24 h at 35°C, and the supernatant was collected and quantified to determine the infectious viral titer by using a TCID50 assay.

A(H3N2)-WT [3] = experiment: yield reduction assay (YRA) in MDCK-SIAT cells; assay type: cell-based, influenza A(H3N2) virus; settings: A(H3N2) 100% WT, mean ± SD
Method: as §1

A(H3N2)-WT [4] = experiment: microbe, parasite or virus in culture; assay type: cell-based; settings: Influenza A virus, H3N2, read-out: Baloxavir EC50 (nM) FRA
[5] = target: NA activity of A(H3N2)-WT (Influenza A virus, UniProt P06818); assay type: biochemical
[6] = target: NA activity of A(H1N1pdm09)-WT (Influenza A virus, UniProt C7FH46); assay type: biochemical; settings: read-out: IC50 (nM), neuraminidase inhibitor
[7] = Influenza A virus, read-out: Baloxavir EC50 (nM) YRA
[8] = read-out: Oseltamivir IC50 (nM) YRA

SMILES	EC50 (A(H1N1pdm09)-WT [1]) [nM]	Duration of viral shedding (A(H3N2) 100% WT)	duration of viral shedding shorter than placebo (A(H3N2) 100% WT) [days]	reduction in AUC relative to placebo (A(H3N2) 100% WT) [%]	Duration of viral shedding (A(H1N1pdm09) 100% WT) [days]	reduction in AUC relative to placebo (A(H1N1pdm09) 100% WT) [%]	reduction in mean viral titer 1 day following antiviral treatment (A(H1N1pdm09) 100% WT)	reduction of duration of viral shedding vs placebo (A(H1N1pdm09) 100% WT) [days]	EC50 (A(H1N1pdm09)-WT [2]; [7]) [nM]	EC50 (A(H3N2)-WT [3]; [7]) [nM]	EC50 (A(H3N2)-WT [4]) [nM]	IC50 ([5]; read-out: IC50 (nM), neuraminidase inhibitor) [nM]	IC50 [6] [nM]	AUC (area under the curve of nasal wash viral titer) (A(H1N1pdm09) 100% WT)	IC50 ([5]; read-out: Oseltamivir IC50 (nM) NIA) [nM]	IC50 (A(H1N1pdm09)-WT [2]; [8]) [nM]	IC50 (A(H3N2)-WT [3]; [8]) [nM]
O=C1c2c(O)c(=O)ccn2N([C@@H]2c3ccccc3SCc3c2ccc(F)c3F)[C@@H]2COCCN12 [Baloxavir, baloxavir acid]	1.2 ± 0.2	4.3 days and 4.3 ± 0.9 days	1.7	28	4 ± 0.8	29	1,000 fold	2.3	0.3 ± 0.02	0.4 ± 0.1	0.6 ± 0.2	–	–	–	–	–	–
CCC(CC)[C@H](NC(C)=O)[C@@H]1[C@H](O)[C@@H](C(=O)O)C[C@H]1N=C(N)N [Peramivir]	–	–	–	–	–	–	–	–	–	–	–	0.19 ± 0.01	0.15 ± 0.03	–	–	–	–
CCOC(=O)C1=C[C@@H](OC(CC)CC)[C@H](NC(C)=O)[C@@H](N)C1 [Oseltamivir, oseltamivir]	–	[…]	–	–	[…]	–	no reduction	–	–	–	–	–	–	[…]	[…]	[…]	[…]
